How the values were obtained:
Assay in all cases: Antiamidolytic Assay
Plasminogen = Plasminogen (Homo sapiens, UniProt P00747)
Method: (§1) Quantities of 0.2 mL of examined preparation (as control, 0.15 M NaCl), buffer, and 0.1 mL of enzyme solution were mixed together. The mixture was incubated at 37°C for 3 min then the synthetic substrate solution in the same buffer was added. After 20 min of incubation, the reaction was stopped by adding 0.1 mL of 50% acetic acid, and the absorbance of the released p-nitroaniline was measured at 405 nm.

[1] = target: Urokinase-type plasminogen activator (Homo sapiens, UniProt P00749)
Method: as §1

Serine protease 1 = Serine protease 1 (Homo sapiens, UniProt P07477)
Serine protease 1, sequence (P07477 whole entry): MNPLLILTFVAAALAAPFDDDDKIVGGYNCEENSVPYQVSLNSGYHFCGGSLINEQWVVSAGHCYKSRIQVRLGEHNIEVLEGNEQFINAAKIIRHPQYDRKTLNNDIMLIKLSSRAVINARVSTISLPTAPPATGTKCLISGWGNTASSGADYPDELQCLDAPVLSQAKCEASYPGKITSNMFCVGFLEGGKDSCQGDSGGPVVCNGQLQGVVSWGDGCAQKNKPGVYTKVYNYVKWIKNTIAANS
Method: as §1

Plasminogen, sequence (P00747 97-580 limits assumed): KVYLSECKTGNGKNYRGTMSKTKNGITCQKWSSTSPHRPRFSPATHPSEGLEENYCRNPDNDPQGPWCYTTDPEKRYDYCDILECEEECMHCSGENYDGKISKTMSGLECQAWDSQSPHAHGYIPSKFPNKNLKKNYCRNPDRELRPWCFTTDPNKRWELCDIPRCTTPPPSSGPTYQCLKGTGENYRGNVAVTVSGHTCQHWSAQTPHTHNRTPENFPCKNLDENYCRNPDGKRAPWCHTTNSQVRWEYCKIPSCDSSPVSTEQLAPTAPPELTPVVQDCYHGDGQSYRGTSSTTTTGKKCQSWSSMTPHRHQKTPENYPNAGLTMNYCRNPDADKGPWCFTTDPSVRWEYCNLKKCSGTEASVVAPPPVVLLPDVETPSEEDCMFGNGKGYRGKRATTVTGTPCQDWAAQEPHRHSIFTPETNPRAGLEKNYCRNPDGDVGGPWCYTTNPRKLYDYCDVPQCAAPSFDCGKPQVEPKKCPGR
Plasminogen, sequence (P00747 581-810 limits assumed): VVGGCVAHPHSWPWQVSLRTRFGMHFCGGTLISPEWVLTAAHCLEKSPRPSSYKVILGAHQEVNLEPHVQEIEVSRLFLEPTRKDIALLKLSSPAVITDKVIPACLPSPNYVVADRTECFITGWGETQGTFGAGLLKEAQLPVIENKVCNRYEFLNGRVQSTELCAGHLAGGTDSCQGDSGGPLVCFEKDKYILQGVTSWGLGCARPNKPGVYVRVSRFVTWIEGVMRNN

SMILES | IC50 (Plasminogen) [µM] | IC50 [1] [µM] | IC50 (Serine protease 1) [µM]
Nc1cccc(C(=O)Nc2cccc(C(=O)NCCCCNC(=O)c3cccc(NC(=O)c4cccc(N)c4)c3)c2)c1 [Carbocyclic minor groove binder, 5] | 20 | 10 | 
Cn1cc(NC(=O)c2cc(NC(=O)CN=C(N)N)cn2C)cc1C(=O)NCCC(=N)N | 40 | 30 | 
Nc1cccc(C(=O)Nc2cccc(C(=O)NCCCCCNC(=O)c3cccc(NC(=O)c4cccc(N)c4)c3)c2)c1 [Carbocyclic minor groove binder, 6] | 10 | 14 | 20
Nc1cccc(C(=O)Nc2cccc(C(=O)NCCCNC(=O)c3cccc(NC(=O)c4cccc(N)c4)c3)c2)c1 [Carbocyclic minor groove binder, 4] | 20 |  | 
N=C(N)c1ccc(OCCCCCOc2ccc(C(=N)N)cc2)cc1 [4-[5-(4-carbamimidoylphenoxy)pentoxy]benzenecarboximidamide;2-oxidanylethanesulfonic acid] | < 10 | 20 | 100
